According to PubChem BioAssay (NCI):
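Test compounds were applied to cells in 96-well plates for 48 hours at 5 doses. Abbreviation: GI50, concentration required for 50% inhibition of growth. TGI: concentration producing complete growth inhibition.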

Tests used:
Test in all cases: growth of human tumour cells (NCI), 48 h
786-0 renal = tested on: 786-0 renal
A498 renal = tested on: A498 renal
A549 NSCLC = tested on: A549 NSCLC
ACHN renal = tested on: ACHN renal
BT-549 breast = tested on: BT-549 breast
CAKI-1 renal = tested on: CAKI-1 renal
CCRF-CEM leukemia = tested on: CCRF-CEM leukemia
COLO 205 colon = tested on: COLO 205 colon
DU-145 prostate = tested on: DU-145 prostate
EKVX NSCLC = tested on: EKVX NSCLC
HCC-2998 colon = tested on: HCC-2998 colon
HCT-116 colon = tested on: HCT-116 colon
HCT-15 colon = tested on: HCT-15 colon
HOP-62 NSCLC = tested on: HOP-62 NSCLC
HOP-92 NSCLC = tested on: HOP-92 NSCLC
HS 578T breast = tested on: HS 578T breast
HT29 colon = tested on: HT29 colon
IGROV1 ovarian = tested on: IGROV1 ovarian
K-562 leukemia = tested on: K-562 leukemia
KM12 colon = tested on: KM12 colon
LOX IMVI melanoma = tested on: LOX IMVI melanoma
M14 melanoma = tested on: M14 melanoma
MALME-3M melanoma = tested on: MALME-3M melanoma
MCF7 breast = tested on: MCF7 breast
MDA-MB-231 breast = tested on: MDA-MB-231 breast
MDA-MB-435 = tested on: MDA-MB-435
MOLT-4 leukemia = tested on: MOLT-4 leukemia
NCI-H226 lung = tested on: NCI-H226 lung
NCI-H23 lung = tested on: NCI-H23 lung
NCI-H460 lung = tested on: NCI-H460 lung
NCI-H522 lung = tested on: NCI-H522 lung
NCI/ADR-RES ovarian = tested on: NCI/ADR-RES ovarian
OVCAR-3 ovarian = tested on: OVCAR-3 ovarian
OVCAR-4 ovarian = tested on: OVCAR-4 ovarian
OVCAR-5 ovarian = tested on: OVCAR-5 ovarian
OVCAR-8 ovarian = tested on: OVCAR-8 ovarian
PC-3 prostate = tested on: PC-3 prostate
RPMI-8226 leukemia = tested on: RPMI-8226 leukemia
RXF 393 renal = tested on: RXF 393 renal
SF-268 CNS = tested on: SF-268 CNS
SF-295 CNS = tested on: SF-295 CNS
SF-539 CNS = tested on: SF-539 CNS
SK-MEL-2 melanoma = tested on: SK-MEL-2 melanoma
SK-MEL-28 melanoma = tested on: SK-MEL-28 melanoma
SK-MEL-5 melanoma = tested on: SK-MEL-5 melanoma
SK-OV-3 ovarian = tested on: SK-OV-3 ovarian
SN12C renal = tested on: SN12C renal
SNB-19 CNS = tested on: SNB-19 CNS
SNB-75 CNS = tested on: SNB-75 CNS
SR leukemia = tested on: SR leukemia
SW-620 colon = tested on: SW-620 colon
T-47D breast = tested on: T-47D breast
TK-10 renal = tested on: TK-10 renal
U251 CNS = tested on: U251 CNS
UACC-257 melanoma = tested on: UACC-257 melanoma
UACC-62 melanoma = tested on: UACC-62 melanoma
UO-31 renal = tested on: UO-31 renal

Q: Which results are given for Fc1ccc(Nc2nc3nonc3nc2Nc2ccc(I)cc2)cc1?
A: GI50 (786-0 renal): 298 nM; TGI (786-0 renal): 2590 nM; GI50 (A498 renal): 227 nM; TGI (A498 renal): 708 nM; GI50 (A549 NSCLC): 313 nM; TGI (A549 NSCLC): 11200 nM; GI50 (ACHN renal): 171 nM; TGI (ACHN renal): 3430 nM; GI50 (BT-549 breast): 266 nM; TGI (BT-549 breast): 2020 nM; GI50 (CAKI-1 renal): 251 nM; TGI (CAKI-1 renal): 14700 nM; GI50 (CCRF-CEM leukemia): 220 nM; TGI (CCRF-CEM leukemia): 4470 nM; GI50 (COLO 205 colon): 208 nM; TGI (COLO 205 colon): 550 nM; GI50 (DU-145 prostate): 395 nM; TGI (DU-145 prostate): 16800 nM; GI50 (EKVX NSCLC): 273 nM; TGI (EKVX NSCLC): 10100 nM; GI50 (HCC-2998 colon): 425 nM; TGI (HCC-2998 colon): 9240 nM; GI50 (HCT-116 colon): 240 nM; TGI (HCT-116 colon): 11300 nM; GI50 (HCT-15 colon): 302 nM; TGI (HCT-15 colon): 10500 nM; GI50 (HOP-62 NSCLC): 344 nM; TGI (HOP-62 NSCLC): 1920 nM; GI50 (HOP-92 NSCLC): 40 nM; TGI (HOP-92 NSCLC): 326 nM; GI50 (HS 578T breast): 617 nM; TGI (HS 578T breast): 13600 nM; GI50 (HT29 colon): 303 nM; TGI (HT29 colon): 10300 nM; GI50 (IGROV1 ovarian): 217 nM; TGI (IGROV1 ovarian): 13300 nM; GI50 (K-562 leukemia): 181 nM; TGI (K-562 leukemia): 11000 nM; GI50 (KM12 colon): 332 nM; TGI (KM12 colon): 11400 nM; GI50 (LOX IMVI melanoma): 349 nM; TGI (LOX IMVI melanoma): 1440 nM; GI50 (M14 melanoma): 289 nM; TGI (M14 melanoma): 2860 nM; GI50 (MALME-3M melanoma): 93.9 nM; TGI (MALME-3M melanoma): 511 nM; GI50 (MCF7 breast): 277 nM; TGI (MCF7 breast): 4080 nM; GI50 (MDA-MB-231 breast): 310 nM; TGI (MDA-MB-231 breast): 1720 nM; GI50 (MDA-MB-435): 276 nM; TGI (MDA-MB-435): 10800 nM; GI50 (MOLT-4 leukemia): 219 nM; TGI (MOLT-4 leukemia): 750 nM; GI50 (NCI-H226 lung): 319 nM; TGI (NCI-H226 lung): 1940 nM; GI50 (NCI-H23 lung): 265 nM; TGI (NCI-H23 lung): 1310 nM; GI50 (NCI-H460 lung): 312 nM; TGI (NCI-H460 lung): 12400 nM; GI50 (NCI-H522 lung): 192 nM; TGI (NCI-H522 lung): 693 nM; GI50 (NCI/ADR-RES ovarian): 272 nM; TGI (NCI/ADR-RES ovarian): 1950 nM; GI50 (OVCAR-3 ovarian): 319 nM; TGI (OVCAR-3 ovarian): 14100 nM; GI50 (OVCAR-4 ovarian): 283 nM; TGI (OVCAR-4 ovarian): 64500 nM; GI50 (OVCAR-5 ovarian): 373 nM; TGI (OVCAR-5 ovarian): 20200 nM; GI50 (OVCAR-8 ovarian): 312 nM; TGI (OVCAR-8 ovarian): 12800 nM; GI50 (PC-3 prostate): 181 nM; TGI (PC-3 prostate): 10700 nM; GI50 (RPMI-8226 leukemia): 85.5 nM; TGI (RPMI-8226 leukemia): 2130 nM; GI50 (RXF 393 renal): 237 nM; TGI (RXF 393 renal): 817 nM; GI50 (SF-268 CNS): 367 nM; TGI (SF-268 CNS): 17900 nM; GI50 (SF-295 CNS): 214 nM; TGI (SF-295 CNS): 792 nM; GI50 (SF-539 CNS): 275 nM; TGI (SF-539 CNS): 2580 nM; GI50 (SK-MEL-2 melanoma): 213 nM; TGI (SK-MEL-2 melanoma): 617 nM; GI50 (SK-MEL-28 melanoma): 340 nM; TGI (SK-MEL-28 melanoma): 4630 nM; GI50 (SK-MEL-5 melanoma): 147 nM; TGI (SK-MEL-5 melanoma): 325 nM; GI50 (SK-OV-3 ovarian): 269 nM; TGI (SK-OV-3 ovarian): 962 nM; GI50 (SN12C renal): 260 nM; TGI (SN12C renal): 11200 nM; GI50 (SNB-19 CNS): 275 nM; TGI (SNB-19 CNS): 15900 nM; GI50 (SNB-75 CNS): 263 nM; TGI (SNB-75 CNS): 11700 nM; GI50 (SR leukemia): 252 nM; TGI (SR leukemia): 1910 nM; GI50 (SW-620 colon): 387 nM; TGI (SW-620 colon): 15600 nM; GI50 (T-47D breast): 228 nM; TGI (T-47D breast): 892 nM; GI50 (TK-10 renal): 315 nM; TGI (TK-10 renal): 2180 nM; GI50 (U251 CNS): 293 nM; TGI (U251 CNS): 10800 nM; GI50 (UACC-257 melanoma): 207 nM; TGI (UACC-257 melanoma): 756 nM; GI50 (UACC-62 melanoma): 142 nM; TGI (UACC-62 melanoma): 2160 nM; GI50 (UO-31 renal): 156 nM; TGI (UO-31 renal): 858 nM
